Data published in patent US8653108B1, “Oximes for treatment of peripheral and central nervous system exposure to acetyl cholinesterase inhibitors” (priority 2011, dated 2014).

What was measured:
[1] = test system: Madin Darby canine kidney cell line transfected with human MDR-1 gene; assay: MDR/MDCK bidirectional transwell permeability assay; format: in vitro ADME
Protocol: (§1) See, Wang, Q. et al, Evaluation of the MDR-MDCK Cell Line As a Permeability Screen For The Blood Brain Barrier, Int. J. Pharm. 288(2) 349-359. The assay is a bidirectional assay in a transwell format system, assessing the permeability of compounds across a Madin Darby canine kidney cell line transfected with human MDR-1 gene. Efflux is assessed based on ratios from the basolateral and apical sides of the chamber.

human MDR-1 (P-gp) = assay: as above; format: in vitro ADME, canine; conditions: dog
Protocol: as §1

Row | SMILES | Brain Penetration Classification [1] | Papp A→B (human MDR-1 (P-gp); MDCK-MDR1, apical to basolateral) [×10⁻⁶ cm/s] | Papp B→A (human MDR-1 (P-gp); MDCK-MDR1, basolateral to apical) [×10⁻⁶ cm/s] | Papp A-B ([1]; apical to basolateral) [×10⁻⁶ cm/s] | Papp B-A ([1]; basolateral to apical) [×10⁻⁶ cm/s]
1 | CCN(CC)CCNC(=O)/C=N/O.Cl [Example 1, N-(2-(diethylamino)ethyl)-2-(hydroxyimino)acetamide hydrochloride] | Low | < 0.51 | < 0.67 |  | 
2 | CS(=O)(=O)[O-].CS(=O)(=O)[O-].ON=Cc1cc[n+](C[n+]2ccc(C=NO)cc2)cc1 [MMB4 DMS] | Low |  |  | <0.57 | <0.57
